pIC50: −log10 of the molar value.

In the experiment the target is T1, 5-lipoxygenase (Mus musculus, UniProt P48999).
T1 construct: The supernatant is used as a 5-lipogenase enzyme solution; endogenous in cells
T1 sequence (P48999 1-674): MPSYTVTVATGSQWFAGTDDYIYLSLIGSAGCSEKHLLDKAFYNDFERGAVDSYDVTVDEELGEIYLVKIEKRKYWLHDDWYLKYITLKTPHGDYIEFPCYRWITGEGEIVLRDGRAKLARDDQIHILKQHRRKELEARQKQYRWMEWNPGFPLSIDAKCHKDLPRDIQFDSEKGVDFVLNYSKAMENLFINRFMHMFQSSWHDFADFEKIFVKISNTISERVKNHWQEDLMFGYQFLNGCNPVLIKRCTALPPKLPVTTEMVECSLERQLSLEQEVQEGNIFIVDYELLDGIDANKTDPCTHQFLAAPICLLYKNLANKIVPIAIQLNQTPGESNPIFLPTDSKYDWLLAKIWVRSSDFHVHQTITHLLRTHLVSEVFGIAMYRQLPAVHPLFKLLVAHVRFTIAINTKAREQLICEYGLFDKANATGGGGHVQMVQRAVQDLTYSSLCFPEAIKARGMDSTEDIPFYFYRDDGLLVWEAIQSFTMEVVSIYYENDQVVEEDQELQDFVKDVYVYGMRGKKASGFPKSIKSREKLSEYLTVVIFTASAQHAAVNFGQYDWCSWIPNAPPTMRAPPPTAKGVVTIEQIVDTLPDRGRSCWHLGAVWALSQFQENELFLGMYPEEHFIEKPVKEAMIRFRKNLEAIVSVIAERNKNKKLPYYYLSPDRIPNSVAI
Description: 5-Lipoxygenase-inhibiting Activity (decrease in 5-HETE and LTB4 formed from radiolabelled arachidonic acid, enzyme solution from mouse mastcytoma cells P-815). It is filed as biochemical. The note with it: 5-HETE and LTB4 formation; mouse mastcytoma P-815 enzyme solution; 37° C., 5 min; pH 7.4; with indomethacin; read-out: 50% Inhibitory concentration IC50. The gist of the method:
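Enzyme is sonicated 10,000 rpm supernatant of P-815 mouse mastocytoma cells, reacted 5 min at 37 °C with radiolabelled arachidonic acid, indomethacin and CaCl2 in pH 7.4 phosphate buffer. 5-HETE and LTB4 separated by TLC and counted by scintillation; IC50 or IC30 is concentration reducing product to 50% or 30% of control.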
For the compound `COc1cc(/C=C/C=C/C(=O)NCCOC(c2ccccc2)c2ccccc2)cc(OC)c1O` [Example 100, 2-[5-(3,5-dimethoxy-4-hydroxy)phenyl-2,4-pentadienoyl]aminoethyl benzhydryl ether], the pIC50 is 8.00.
The figure for `CC(OCCCN1CCN(C(=O)/C=C/c2ccc(O)c(O)c2)CC1)(c1ccccc1)c1ccc(Cl)cc1` (stereo not drawn) [Example 101, N-[3-(3,4-dihydroxyphenyl)-2-propenoyl]-N'-[3-[1-phenyl-1-(p-chlorophenyl)ethoxy]propyl]piperazine] is 8.00; for `COc1cc(/C=C/C(=O)N2CCN(CCOC(C)(c3ccccc3)c3ccc(Cl)cc3)CC2)ccc1O` (stereo not drawn) [Example 102, N-[3-[3-methoxy-4-hydroxyphenyl)-2-propenoyl]-N'-[2-[1-phenyl-1-(p-chlorophenyl)ethoxy]ethyl]piperazine] it is 6.70; for `COc1cc(/C=C/C(=O)N2CCN(CCn3cnc4c3c(=O)n(C)c(=O)n4C)CC2)ccc1O` [Example 103, 7-[2-[4-[3(3-methoxy-4-hydroxyphenyl)-2-propenoyl]piperazin-1-yl]-ethyl]theophilline] it is 4.52.
The result for `COc1ccc(/C=C/C(=O)N2CCN(CCCOC(C)(c3ccccc3)c3ccc(Cl)cc3)CC2)cc1OC` (stereo not drawn) [Example 104, N-[3-(3,4-dimethoxy)phenyl-2-propenoyl]-N'-[3-[1-phenyl-1-(p-chlorophenyl)ethoxy]propyl]piperazine] reads 5.00; that for `COc1cc(/C=C/C(=O)N2CCN(CCOC(C)(c3ccccc3)c3ccc(Cl)cc3)CC2)cc(OC)c1O` (stereo not drawn) [Example 105, N-[3-(3,5-dimethoxy-4-hydroxyphenyl)-2-propenoyl]-N'-[2-[1-phenyl-1-(p-chlorophenyl)ethoxy]ethyl]piperazine], 8.00.
The figure for `COc1cc(/C=C/C(=O)N2CCN(CCCOC(C)(c3ccccc3)c3ccc(Cl)cc3)CC2)cc(OC)c1O` (stereo not drawn) [Example 106, N-[3-(3,5-dimethoxy-4-hydroxy)phenyl-2-propenoyl]-N'-[3-[1-phenyl-1-(p-chlorophenyl)ethoxy]propyl]piperazine] is 8.00; for `CC(OCCN1CCN(C(=O)/C=C/C=C/c2ccc(O)c(O)c2)CC1)(c1ccccc1)c1ccc(Cl)cc1` (stereo not drawn) [Example 107, N-[5-(3,4-dihydroxyphenyl)-2,4-pentadienoyl]-N-[2-[1-phenyl-1-(p-chlorophenyl)-ethoxy]ethyl]piperazine] it is 8.00; for `CC(OCCCN1CCN(C(=O)/C=C/C=C/c2ccc(O)c(O)c2)CC1)(c1ccccc1)c1ccc(Cl)cc1` (stereo not drawn) [Example 108, N-[5-(3,4-dihydroxy)phenyl-2,4-pentadienoyl]-N'-[3-[1-phenyl-1-(p-chlorophenyl)ethoxy]propyl]piperazine] it is 8.10.
As for `Cn1c(=O)c2c(ncn2CCN2CCN(C(=O)/C=C/C=C/c3ccc(O)c(O)c3)CC2)n(C)c1=O` [Example 109], the pIC50 was 5.70.
As for `COc1cc(/C=C/C=C/C(=O)N2CCN(CCOC(C)(c3ccccc3)c3ccc(Cl)cc3)CC2)ccc1O` (stereo not drawn) [Example 110, N-[5-(3-methoxy-4-hydroxyphenyl)-2,4-pentadienoyl]-N'-[2-[1-phenyl-1-(p-chlorophenyl)ethoxy]ethyl]piperazine], the pIC50 is 8.00.
The result for `COc1cc(/C=C/C=C/C(=O)N2CCN(CCCOC(C)(c3ccccc3)c3ccc(Cl)cc3)CC2)ccc1O` (stereo not drawn) [Example 111, N-[5-(3-methoxy-4-hydroxy)phenyl-2,4-pentadienoyl)-N'-[3-[1-phenyl-1-(p-chlorophenyl)ethoxy]propyl]piperazine] reads 8.00; that for `COc1cc(/C=C/C=C/C(=O)N2CCN(CCn3cnc4c3c(=O)n(C)c(=O)n4C)CC2)ccc1O` [Example 112], 5.70.
Take `COc1cc(/C=C/C=C/C(=O)N2CCN(CCOC(C)(c3ccccc3)c3ccc(Cl)cc3)CC2)cc(OC)c1O` (stereo not drawn) [Example 113, N-[5-(3,5-dimethoxy-4-hydroxyphenyl]-2,4-pentadienoyl]-N'-[2-[1-phenyl-1-(p-chlorophenyl)ethoxy]ethyl]piperazine]: the pIC50 is 7.70.
On to `COc1cc(/C=C/C=C/C(=O)N2CCN(CCn3cnc4c3c(=O)n(C)c(=O)n4C)CC2)cc(OC)c1O` [Example 114], for which the pIC50 was 5.70.
The figure for `COc1cc(/C=C/C=C/C(=O)N2CCN(CCn3cnc4c3c(=O)n(C)c(=O)n4C)CC2)cc(OC)c1OC` [Example 115, 7-[2-[4-[5-(3,4,5-trimethoxyphenyl)-2,4-pentadienoyl]piperazin-1-yl]ethyl]theophylline] is 4.70.
The result for `COc1cc(/C=C/C(=O)NCCN2CCC(OC(c3ccccc3)c3ccccc3)CC2)ccc1O` [Example 116, 1-[2-[3-(3-methoxy-4-hydroxyphenyl)-2-propenoyl]aminoethyl]-4-benzhydroxypiperidine] reads 6.40.
The figure for `COc1cc(/C=C/C(=O)NCCN2CCC(OC(c3ccccc3)c3ccccc3)CC2)cc(OC)c1O` [Example 117, 1-[2-[3-(3,5-dimethoxy-4-hydroxyphenyl)-2-propenoyl]aminoethyl]-4-benzhydroxypiperidine] is 7.70; for `O=C(/C=C/C=C/c1ccc(O)c(O)c1)NCCN1CCC(OC(c2ccccc2)c2ccccc2)CC1` [Example 118] it is 7.52.
For `COc1cc(/C=C/C=C/C(=O)NCCN2CCC(OC(c3ccccc3)c3ccccc3)CC2)ccc1O` [Example 119, 1-[2-[5-(3-methoxy-4-hydroxyphenyl)-2,4-pentadienoyl]aminoethyl]4-benzhydroxypiperidine], the pIC50 was 8.05.
The figure for `COc1cc(/C=C/C=C/C(=O)NCCN2CCC(OC(c3ccccc3)c3ccccc3)CC2)cc(OC)c1O` [Example 120, 1-[2-[5-(3,5-dimethoxy-4-hydroxyphenyl)-2,4-pentadienoyl]aminoethyl]-4-benzhydroxypiperidine] is 8.00; for `Cn1c(=O)c2c(ncn2CCCCN2CCN(C(=O)/C=C/c3ccc(O)c(O)c3)CC2)n(C)c1=O` [Example 121, 7-[4-[4-{3-(3,4-dihydroxyphenyl)-2-propenoyl}piperazi-1-nyl]butyl]theophylline] it is 5.30; for `O=C(/C=C/c1ccc(O)c(O)c1)NCCCN1CCC(OC(c2ccccc2)c2ccccc2)CC1` [Example 122, 1-[3-[3-(3,4-dihydroxyphenyl)-2-propenoyl]aminopropyl]-4-benzhydroxypiperidine] it is 8.00.
The result for `COc1cc(/C=C/C(=O)N2CCN(CCCn3cnc4c3c(=O)n(C)c(=O)n4C)CC2)ccc1O` [Example 123] reads 5.00; that for `COc1cc(/C=C/C(=O)NCCCCN2CCC(OC(c3ccccc3)c3ccccc3)CC2)ccc1O` [Example 124, 1-[4-[3-(3-methoxy-4-hydroxyphenyl)-2-propenoyl]aminobutyl]-4-benzhydroxypiperidine], 6.70.
The figure for `COc1cc(/C=C/C(=O)N2CCN(CCCCn3cnc4c3c(=O)n(C)c(=O)n4C)CC2)cc(OC)c1O` [Example 125, 7-[4-[4-{3-(3,5-dimethoxy-4-hydroxyphenyl)-2-propenoyl}piperazi-1-nyl]butyl]theophylline] is 5.15.
Turning to `COc1cc(/C=C/C(=O)NCCCN2CCC(OC(c3ccccc3)c3ccccc3)CC2)cc(OC)c1O` [Example 126, 1-[3-{3-(3,5-dimethoxy-4-hydroxyphenyl)-2-propenoyl}aminopropyl]-4-benzhydroxypiperidine], the pIC50 is 8.00.
In the case of `COc1cc(/C=C/C(=O)N2CCN(CCCn3cnc4c3c(=O)n(C)c(=O)n4C)CC2)cc(OC)c1OC` [Example 127, 7-[3-[4-[3-(3,4,5-trimethoxyphenyl)-2-propenoyl]piperazi-1-nyl]-1-propyl]theopylline], the pIC50 is 4.52.
The result for `Cn1c(=O)c2c(ncn2CCCN2CCN(C(=O)/C=C/C=C/c3ccc(O)c(O)c3)CC2)n(C)c1=O` [Example 128, 7-[3-[4-[5-(-dihydroxyphenyl)-2,4-pentadienoyl]piperazi-1-nyl]-1-propyl]theophylline] reads 6.00; that for `O=C(/C=C/C=C/c1ccc(O)c(O)c1)NCCCCN1CCC(OC(c2ccccc2)c2ccccc2)CC1` [Example 129, 1-[4-[5-(3,4-dihydroxyphenyl)-2,4-pentadienoyl]aminobutyl]-4-benzhydroxypiperidine], 7.70; that for `COc1cc(/C=C/C=C/C(=O)N2CCN(CCCCn3cnc4c3c(=O)n(C)c(=O)n4C)CC2)ccc1O` [Example 130], 6.00.
The figure for `COc1cc(/C=C/C=C/C(=O)NCCCN2CCC(OC(c3ccccc3)c3ccccc3)CC2)ccc1O` [Example 131] is 8.15; for `COc1cc(/C=C/C=C/C(=O)N2CCN(CCCCn3cnc4c3c(=O)n(C)c(=O)n4C)CC2)cc(OC)c1O` [Example 132] it is 6.00.

The values are drawn from patent US4673684A, “Amide derivatives and 5-lipoxygenase inhibitors containing the same as an active ingredient” (Terumo Corporation, priority 1984, dated 1987).
